{"source": "paper PMC8235661", "about": "“Photoelectric Dye, NK-5962, as a Potential Drug for Preventing Retinal Neurons from Apoptosis: Pharmacokinetic Studies Based on Review of the Evidence” (Life, 2021)", "key": {"[1]": {"assay": "Unbound fraction by equilibrium dialysis, human plasma", "format": "in vitro ADME", "settings": "1 μM, equilibrium dialysis 37 °C 4 h", "experimental": "(§1) An equilibrium dialysis apparatus, Rapid Equilibrium Dialysis (RED) Device Single-Use Plate with Inserts, 8K MWCO (ThermoFisher Scientific, Waltham, MA, USA), was used to determine the unbound fraction for each compound in human plasma, rat plasma, and medium containing 10% fetal bovine serum (FBS). Plasma or medium was mixed with the test compound (1 μM) and 200 μL aliquots were loaded into the apparatus and dialyzed versus 350 μL of 100 mM phosphate buffer (pH 7.4) at 37 °C for 4 h by rotation at 1000 rpm. The unbound fraction was calculated as the ratio of receiver side (buffer) to donor side (plasma) concentrations."}, "[2]": {"assay": "Eye ball concentration after topical application as eye drops", "format": "in vivo", "settings": "Wistar, rat", "experimental": "The NK-5962 solutions at 16 μM concentration in phosphate-buffered saline and at 39.7 μM concentration in 0.5% methyl cellulose 400 solution (FUJIFILM Wako Chemicals, Osaka, Japan) were prepared as eye drops and topically applied to both eyes of two Wistar rats assigned for each concentration. The eyes were enucleated 30 min after topical application, washed twice in saline, weighed, and frozen for NK-5962 measurement. In parallel, 3 μL of the NK-5962 solution at 16 μM concentration in phosphate-buffered saline was injected into the vitreous of both eyes of 2 Wistar rats. The eyes in each rat were enucleated 5 min and 2 h after the intravitreous injection, washed twice in saline, weighed, and then frozen. Both eyes of one rat served as the negative control. This study was approved by the Animal Care and Use Committee at Okayama University (Identifier OKU-2016267, OKU-2019196).\nLiquid chromatography and tandem mass spectrometry instrument (LC-MS8060) equipped with Shimadzu Nexera series LC system (Shimadzu, Kyoto, Japan) were used. All compounds were analyzed in multi-reaction monitoring mode under electron spray ionization conditions. The analytical column used was a […] C18 MGIII (3 μm × 2.0 mmID × 35 mm; OSAKA SODA, Osaka, Japan) at 50 °C. […]"}, "bacterial": {"tested_on": "bacterial", "assay": "Bacterial reverse mutation test"}, "[3]": {"assay": "Unbound fraction by equilibrium dialysis, rat plasma", "format": "in vitro ADME", "settings": "1 μM, equilibrium dialysis 37 °C 4 h", "experimental": "as §1"}, "[4]": {"assay": "Reactive oxygen species (ROS) assay under simulated sunlight", "format": "physicochemical", "experimental": "The ROS assay was designed to detect both singlet oxygen and superoxide generated from photo-irradiated chemicals. Briefly, singlet oxygen was measured in aqueous solution by spectrophotometrically monitoring the bleaching of p-nitrosodimethylaniline at 440 nm using imidazole as a selective acceptor of singlet oxygen. Samples containing the tested chemical (20 or 200 μM), p-nitrosodimethylaniline (50 μM), and imidazole (50 μM) in 20 mM sodium phosphate buffer (pH 7.4) were mixed in a tube. Each sample in 200 μL was transferred into a well of a plastic 96-well plate (clear, untreated, and flat-bottomed) and checked for precipitation under a microscope with an objective lens (×100) before light exposure. The plate was subjected to a measurement of absorbance at 440 nm using a microplate spectrophotometer. The plate was fixed in the quartz reaction container with a quartz cover and then irradiated with the simulated sunlight (ultraviolet A/B and visible light, 250 W/m^2, Suntest CPS plus, Atlas Material Testing Technology, Mount Prospect, IL, USA) for 1 h. After agitation on a plate shaker, the UV absorbance at 440 nm was measured. For the determination of superoxide, samples containing the test chemical (20 or 200 μM) and nitroblue tetrazolium (50 μM) in 20 mM sodium phosphate buffer were irradiated with the simulated sunlight for 1 h and the reduction in nitroblue tetrazolium was measured by the increase in absorbance at 560 nm in the same manner as the singlet oxygen determination. Experiments were performed in triplicate wells in three independent runs. As the final concentration, 200 μM test chemical solutions should be subjected to the ROS assay. However, when precipitation could be observed at 200 μM under the optical microscope, additional experiments should be performed under appropriate dilution (20, 50, or 100 μM)."}, "[5]": {"assay": "PAMPA (parallel artificial membrane permeability assay)", "format": "in vitro ADME", "settings": "PAMPA, pH 6.5; 0.2 μM test compound, 37 °C, 4 h", "experimental": "In order to determine the passive membrane diffusion rates, the Corning Gentest Pre-coated PAMPA Plate System was used in the PAMPA test. […] The acceptor plate was then placed on top of the donor plate and incubated at 37 °C without agitation for 4 h. At the end of the incubation, the plates were separated and the solutions from each well of both the acceptor plate and the donor plate were transferred to 96-well plates and mixed with acetonitrile. The final concentrations of compound in both the donor wells and acceptor wells, as well as the concentrations of the initial donor solutions, were analyzed by LC-MS/MS. The permeability of the compound was calculated according to the previous report."}, "[6]": {"settings": "20 µM, simulated sunlight 1 h, mean ± standard deviation (n = 3)"}}, "data": [{"smiles": "CCCCN(CCCC)c1ccc(C=Cc2sc3ccccc3[n+]2CC(=O)O)cc1.[Br-]", "note": "[NK-5962, 2-[2-[4-(dibutylamino)phenyl]ethenyl]-3-carboxymethylbenzothiazolium bromide]", "values": [{"measurement": "Protein-Binding (Non-Binding Ratio) Human Plasma", "setting": "[1]", "value": 0.028}, {"measurement": "concentration at 0.5 h", "setting": "[2]; topical eye drop 16 µM (10 µL)", "value": 0.14, "unit": "nM"}, {"measurement": "concentration at 0.5 h", "setting": "[2]; topical eye drop 39.7 µM (10 µL)", "value": 0.96, "unit": "nM"}, {"measurement": "genetic toxicity, bacterial reverse mutation test", "setting": "bacterial", "value": "not toxic"}, {"measurement": "Protein-Binding (Non-Binding Ratio) Rat Plasma", "setting": "[3]", "value": 0.022}, {"measurement": "Reactive Oxygen Species Generation Singlet oxygen", "setting": "[4]; [6]", "value": "93 ± 14 ΔA440 × 1000"}, {"measurement": "Reactive Oxygen Species Generation Superoxide", "setting": "[4]; [6]", "value": "Not detected"}, {"measurement": "phototoxicity conclusion from ROS assay", "setting": "[4]; low level of reactive oxygen species generation", "value": "less phototoxic"}, {"measurement": "Papp at 4 h, 0.2 μM", "setting": "[5]", "value": 0.31, "unit": "×10⁻⁶ cm/s"}]}]}
